We go through 1 molecule from patent US10052304B2, “Compositions and methods for cancer therapy” (UNIVERSITY OF IOWA RESEARCH FOUNDATION, priority 2015, dated 2018).

Entries after “also recorded” stand apart in the source; their conditions may differ.

Data set [1] deals with advanced stage NSCLC patients. The data set is described as follows: Phase II clinical trial of pharmacological ascorbate with carboplatin and paclitaxel in advanced stage NSCLC. The data set is classed as in vivo, human. Here is the method:
This phase II clinical trial was registered with clinicaltrials.gov (NCT 02420314) prior to enrollment of the first subject. Newly diagnosed advanced stage NSCLC patients were invited to participate.
Whole blood was collected from patients around infusions.
(§1) We have not seen any unexpected or unusual increase in Grade 3/4 toxicities as compared to previously published literature, although it remains too early for a direct comparison. Responses to therapy were determined per RECIST 1.1 criteria (Eisenhauer et al., 2009). Currently, four of six patients have completed the trial with imaging-confirmed partial responses to therapy. […] Finally, one patient progressed with a new spinal lesion, although the target lesions are stable; this patient has been transitioned off of the trial.
as §1, with “This phase II clinical trial was registered with clinicaltrials.gov (NCT 02420314) prior to enrollment of the first subject. Newly diagnosed advanced stage NSCLC patients were invited to participate. […] We” for “We”, “a total” for “four”, “eleven subjects have been recruited to the trial, seven of which are currently evaluable for response. Five of seven” for “six”

In the next data set the test system is NSCLC cells. The data set is described as follows: Cellular labile iron pool (Calcein-AM flow cytometry), NSCLC cells. The data set is classed as cell-based, human. The conditions noted are these: increasing doses of ascorbate. Here is the method:
(§2) The labile iron pool (LIP) was visualized using the fluorescent dye Calcein-AM as previously described (Epsztejn et al., 1997) with modifications. After labeling, samples were divided into two flow cytometry sample tubes, to which 100 μM 2′,2′-bipyridyl (BIP) was added to one tube and analyzed by flow cytometry. BIP tubes were incubated for at least 15 minutes before analysis to allow for full chelation of intracellular labile iron. The LIP (A.U.)=MFIBIP−MFINoBIP was normalized against the control samples to calculate the relative labile iron pool.
(§3) The labile iron pool (LIP) was visualized using the fluorescent dye Calcein-AM as previously described with modifications (Epsztejn et al., 1997). Briefly, after sample treatment, cells were trypsinized, spun at 1,200 rpm for 5 min, and resuspended at approximately 1×10^6 cells mL-1 in 500 nM Calcein-AM in PBS. Samples were incubated for 15 min at 4% O2 in a humidity controlled environment (37° C., 5% CO2). Subsequently, samples were pelleted, washed in PBS, and resuspended in 1 mL PBS before dividing each sample into two flow cytometry sample tubes, to which 100 μM 2′,2′-bipyridyl (BIP) was added to one tube. Samples were kept at room temperature and analyzed on a LSR II Flow Cytometer (BD Biosciences; λex=488 nm, λem=515/20 nm). […]

The next data set concerns NHAs. The data set is described as follows: Cellular labile iron pool (Calcein-AM flow cytometry), NHAs. Type of data set: cell-based, human. The conditions noted are these: increasing doses of ascorbate. As to the method: as §2, §3
A further data set deals with ETC complex IV. The data set is described as follows: ETC complex IV activity after ascorbate exposure. Type of data set: cell-based, human. The conditions noted are these: NSCLC cell lysates. As to the method:
Exponentially growing cells were scraped and frozen as dry pellets until assayed for total activity. Aconitase activity was measured as the rate of appearance of NADPH (at 340 nm; Beckman DU 800 spectrophotometer, Brea, Calif.) for 45 min during the reaction of 200 μg total sample protein with 200 μM NADP^+ and 10 U isocitrate dehydrogenase as previously described (Case et al., 2011). Maximal ETC complex activity was measured as previously described (Birch-Machin et al., 1994). Complex I activity was quantified as the rate of rotenone-inhibitable NADH oxidation (320 nm; c=6.22 mM^−1 cm^−1). Complex II activity as the difference in the rate of DCIP reduction in the presence and absence of succinate (at 600 nm; ε=19.1 mM^−1 cm^−1). Complex IV activity was assayed as the rate of oxidation of cytochrome c ([…]; ε=19.6 mM^−1 cm^−1). Rates of activities were normalized to total protein by Lowry.
Exponentially growing cells were scraped and frozen as dry pellets until assayed for protein content (Lowry) and maximal ETC complex activity as previously described (Birch-Machin et al., 1994). Briefly, dry cell pellets were resuspended in 20 mM potassium phosphate buffer and sonicated 3×10 s each. Rates of activities were normalized to total protein. Complex I activity was quantified as the rate of rotenone-inhibitable NADH oxidation (320 nm; ε=6.22 mM-1 cm-1). […]

The next data set relates to ferritin. The following applies: read-out: Km of ascorbate-mediated Fe^+2 release from ferritin; cited from earlier work.
The conditions of data set [2]: IV delivery; cited from earlier work.
Setting [3] is: first six patients, ascorbate 75 g twice weekly + carboplatin/paclitaxel.

The term Km denotes the substrate concentration at which the rate is half of its maximum. With `O=C1O[C@H]([C@@H](O)CO)C(O)=C1O` [ascorbate, L-ascorbic acid], in data set [1] (after 75 g IV infusions), the “patient plasma ascorbate level” value worked out at 16.4 ± 0.5 mM. For the same molecule, the “patients with imaging-confirmed partial responses (RECIST 1.1)” value in data set [1] (ascorbate + carboplatin/paclitaxel, evaluable patients to date) is reported as “four of six; also recorded: Five of seven”. Besides, the disease control rate in data set [1] (setting [3]) came out at 83%. Besides, the objective response rate in data set [1] (setting [3]) is recorded as 67%. For the same molecule, in data set [1] (through 134 total infusions), the “grade 3/4 toxicities attributed to ascorbate” value was “no grade 3/4 toxicities attributed to ascorbate”. The “cellular LIP after ascorbate” value in the data set on NSCLC cells is recorded as “significant dose-dependent ascorbate-induced increases in cellular LIP”; with NHAs, “not seen”. Moreover, in the data set with ETC complex IV, the “ETC complex IV activity” value is “no inhibition of activity”. Moreover, the Km in the data set with ferritin was 1300 µM. Also, in data set [2], the “serum ascorbate concentration achieved (effective therapeutic level)” value is “≈ 20 mM”.
